The target in one data set is T1, P450 1A1 (Homo sapiens, UniProt P04798).
T1 sequence (P04798 1-512): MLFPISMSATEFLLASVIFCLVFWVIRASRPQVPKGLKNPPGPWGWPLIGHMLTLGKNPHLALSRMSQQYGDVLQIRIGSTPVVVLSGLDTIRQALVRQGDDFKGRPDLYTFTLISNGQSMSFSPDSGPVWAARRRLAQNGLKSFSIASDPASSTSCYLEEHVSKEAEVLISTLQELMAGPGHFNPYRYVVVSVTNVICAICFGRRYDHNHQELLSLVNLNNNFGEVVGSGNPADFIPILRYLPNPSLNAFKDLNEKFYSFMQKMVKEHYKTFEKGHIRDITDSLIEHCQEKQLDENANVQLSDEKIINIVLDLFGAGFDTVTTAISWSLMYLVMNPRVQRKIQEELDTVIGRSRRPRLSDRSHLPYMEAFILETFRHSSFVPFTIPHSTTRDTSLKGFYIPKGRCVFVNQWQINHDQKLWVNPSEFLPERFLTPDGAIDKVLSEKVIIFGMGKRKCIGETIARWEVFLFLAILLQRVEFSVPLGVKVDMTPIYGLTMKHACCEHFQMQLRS
Briefly: NADPH-dependency assay, P450 1A1. The note with it: 10 nM (0.01 μM) inhibitor, with or without 5 min NADPH preincubation.

The target in another data set is T2, CYP1A2 (Homo sapiens, UniProt P05177).
T2 sequence (P05177 1-516): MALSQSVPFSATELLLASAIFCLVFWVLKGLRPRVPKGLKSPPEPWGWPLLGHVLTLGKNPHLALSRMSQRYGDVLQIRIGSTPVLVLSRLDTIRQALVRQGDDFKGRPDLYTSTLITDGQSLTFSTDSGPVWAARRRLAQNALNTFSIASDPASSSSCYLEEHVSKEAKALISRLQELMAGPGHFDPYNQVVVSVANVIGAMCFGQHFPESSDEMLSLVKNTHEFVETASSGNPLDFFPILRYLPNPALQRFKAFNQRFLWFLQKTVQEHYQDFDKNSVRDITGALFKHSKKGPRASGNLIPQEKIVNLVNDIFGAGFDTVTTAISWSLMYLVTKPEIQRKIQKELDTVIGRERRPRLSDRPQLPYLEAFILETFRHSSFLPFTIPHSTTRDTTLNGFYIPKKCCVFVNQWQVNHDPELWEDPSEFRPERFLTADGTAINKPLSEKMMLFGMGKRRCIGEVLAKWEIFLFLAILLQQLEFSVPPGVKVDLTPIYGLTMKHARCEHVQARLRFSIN
Briefly: NADPH-dependency assay, P450 1A2. The note with it: human, pH 7.6, probe methoxyresorufin (MROD), 5 µM.

A further data set concerns the target T3, P450 1B1 (Homo sapiens, UniProt Q16678).
T3 sequence (Q16678 1-543): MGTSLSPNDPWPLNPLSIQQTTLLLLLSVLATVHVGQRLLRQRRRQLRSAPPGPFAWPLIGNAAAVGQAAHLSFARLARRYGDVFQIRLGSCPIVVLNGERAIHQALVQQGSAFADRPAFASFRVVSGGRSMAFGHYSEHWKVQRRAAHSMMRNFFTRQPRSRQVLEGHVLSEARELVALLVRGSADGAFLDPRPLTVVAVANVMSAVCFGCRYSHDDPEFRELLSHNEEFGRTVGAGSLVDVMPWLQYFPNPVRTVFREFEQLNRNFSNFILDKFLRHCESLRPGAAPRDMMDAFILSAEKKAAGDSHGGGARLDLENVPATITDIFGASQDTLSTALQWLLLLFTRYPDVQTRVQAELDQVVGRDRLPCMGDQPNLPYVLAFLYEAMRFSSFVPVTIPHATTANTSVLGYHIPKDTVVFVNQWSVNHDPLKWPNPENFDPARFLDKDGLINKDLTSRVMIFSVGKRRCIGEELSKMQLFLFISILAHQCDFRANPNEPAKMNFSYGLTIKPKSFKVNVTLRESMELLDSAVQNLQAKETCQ
Briefly: NADPH-dependency assay, P450 1B1. The note with it: 10 nM (0.01 μM) inhibitor, with or without 5 min NADPH preincubation.

For data set [1], the target named is T4, P450 1A2 (Homo sapiens, UniProt P05177).
T4 sequence (P05177 1-516): T2 sequence (P05177 1-516)
Briefly: Time-dependent inhibition of P450 1A2. The note with it: for KI (time-dependent inhibition of P450 1A2): Kitz-Wilson plot.

The next data set relates to HepG2 cells. Briefly: Alamar blue viability assay in HepG2 cells. Format: cell-based, human.
The target in data set [2] is aryl hydrocarbon receptor (AhR) (Homo sapiens, UniProt P35869). Briefly: Yeast AhR-signaling assay. Format: cell-based.
The next data set has as its target T5, P450 1A2 in HepG2 cells (Homo sapiens, UniProt P05177).
T5 sequence (P05177 2-516): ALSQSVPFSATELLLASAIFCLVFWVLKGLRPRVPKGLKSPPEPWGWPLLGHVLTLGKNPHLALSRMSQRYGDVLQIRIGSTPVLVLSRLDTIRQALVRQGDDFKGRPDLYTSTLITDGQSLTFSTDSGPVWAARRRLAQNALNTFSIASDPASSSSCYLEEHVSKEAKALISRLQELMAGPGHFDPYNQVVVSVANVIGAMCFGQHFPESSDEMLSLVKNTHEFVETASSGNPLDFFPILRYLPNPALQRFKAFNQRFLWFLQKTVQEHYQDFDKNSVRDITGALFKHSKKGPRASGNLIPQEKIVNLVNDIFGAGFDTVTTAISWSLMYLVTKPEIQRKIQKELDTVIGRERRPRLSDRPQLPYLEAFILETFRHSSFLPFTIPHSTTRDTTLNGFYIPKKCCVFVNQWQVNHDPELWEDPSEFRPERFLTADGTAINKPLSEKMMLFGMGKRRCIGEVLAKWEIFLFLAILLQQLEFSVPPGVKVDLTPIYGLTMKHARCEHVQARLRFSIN
Briefly: MROD assay in HepG2 cells.

Data set [3] concerns the target T4, P450 1A2. Briefly: NADPH-dependency assay, P450 1A2. The note with it: 10 nM inhibitor, without NADPH preincubation.

Where two headings read alike, the source gives them in different places.

Sequence of aryl hydrocarbon receptor (AhR) (P35869 11-848): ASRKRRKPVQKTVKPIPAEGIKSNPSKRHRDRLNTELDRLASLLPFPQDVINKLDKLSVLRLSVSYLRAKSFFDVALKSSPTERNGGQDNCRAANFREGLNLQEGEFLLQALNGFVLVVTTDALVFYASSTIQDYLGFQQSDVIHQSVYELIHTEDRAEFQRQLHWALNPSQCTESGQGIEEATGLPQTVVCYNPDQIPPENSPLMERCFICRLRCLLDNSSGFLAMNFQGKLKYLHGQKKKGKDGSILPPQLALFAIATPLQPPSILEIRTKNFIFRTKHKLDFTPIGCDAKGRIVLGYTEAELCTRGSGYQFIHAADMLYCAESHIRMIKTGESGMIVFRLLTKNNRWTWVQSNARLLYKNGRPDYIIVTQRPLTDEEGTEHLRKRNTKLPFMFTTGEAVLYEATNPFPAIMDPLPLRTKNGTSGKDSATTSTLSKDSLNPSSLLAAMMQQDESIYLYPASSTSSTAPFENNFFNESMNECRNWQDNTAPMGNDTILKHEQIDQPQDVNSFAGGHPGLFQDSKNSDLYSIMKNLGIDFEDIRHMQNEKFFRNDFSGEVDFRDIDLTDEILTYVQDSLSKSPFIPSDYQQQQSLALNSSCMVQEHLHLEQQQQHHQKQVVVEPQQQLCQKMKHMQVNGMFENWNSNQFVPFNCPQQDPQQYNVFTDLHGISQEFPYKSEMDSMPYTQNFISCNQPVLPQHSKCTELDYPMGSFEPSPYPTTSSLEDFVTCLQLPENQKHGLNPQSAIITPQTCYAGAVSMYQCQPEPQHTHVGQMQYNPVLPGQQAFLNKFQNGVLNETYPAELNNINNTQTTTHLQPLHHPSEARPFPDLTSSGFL
Sequence of aryl hydrocarbon receptor (AhR) (P27540 whole entry partner): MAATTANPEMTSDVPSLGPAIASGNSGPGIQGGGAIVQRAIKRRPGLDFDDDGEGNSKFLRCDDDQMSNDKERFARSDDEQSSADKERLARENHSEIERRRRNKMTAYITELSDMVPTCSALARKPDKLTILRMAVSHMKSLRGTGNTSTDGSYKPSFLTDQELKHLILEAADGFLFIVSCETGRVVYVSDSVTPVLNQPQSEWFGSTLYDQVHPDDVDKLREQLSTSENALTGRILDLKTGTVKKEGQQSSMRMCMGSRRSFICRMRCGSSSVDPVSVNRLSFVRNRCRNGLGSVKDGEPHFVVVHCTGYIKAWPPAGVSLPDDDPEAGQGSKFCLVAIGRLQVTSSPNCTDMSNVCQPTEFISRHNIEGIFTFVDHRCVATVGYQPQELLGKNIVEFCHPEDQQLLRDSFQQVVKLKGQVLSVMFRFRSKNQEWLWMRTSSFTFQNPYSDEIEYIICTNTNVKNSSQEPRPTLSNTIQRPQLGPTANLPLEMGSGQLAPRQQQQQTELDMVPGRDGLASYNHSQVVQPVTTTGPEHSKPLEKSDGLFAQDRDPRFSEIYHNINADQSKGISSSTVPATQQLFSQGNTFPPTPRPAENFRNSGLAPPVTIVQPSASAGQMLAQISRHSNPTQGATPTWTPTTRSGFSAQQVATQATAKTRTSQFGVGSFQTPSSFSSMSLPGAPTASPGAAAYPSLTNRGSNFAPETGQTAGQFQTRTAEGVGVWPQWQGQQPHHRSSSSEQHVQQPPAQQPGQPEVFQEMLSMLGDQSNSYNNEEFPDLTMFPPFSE

In general, inhibition refers to the relative decrease from the control value, in per cent. The low end stands for little suppression, the high end for strong suppression. Turning to `Cc1cc2c(cc(O)c3c(=O)cc(-c4ccccc4)oc32)o1` [Compound 8, 5-Hydroxy-8-methyl-2-phenyl-4H-furo[2,3-h]chromen-4-one], at P450 1A1, the “effect on P450 1A1 activity” value was “does not influence”. Besides, the inhibition at 6 min, 0.01 µM against CYP1A2 stood at 90%. For the same compound, the “effect on P450 1B1 activity” value at P450 1B1 is “does not influence”. Moreover, at P450 1A2 [1], the “mode of inhibition of P450 1A2 (time dependence)” value (from here on “mode of inhibition of P450 1A2”) is “time- and NADPH-dependent inhibition”; the “KI (time-dependent inhibition of P450 1A2)” value was 0.12 µM.
Consider `O=c1cc(C(F)(F)F)c2ccc3c(c2o1)C=CCO3` [Compound 20, 4-(Trifluoromethyl)pyrano[2,3-f]chromen-2(8H)-one], for which the “concentration not toxic to HepG2 cells” value in the data set with HepG2 cells is ≤ 10^−5 M. Further, the “influence on βNF-induced AhR activation” value in data set [2] (10^−4 to 10^−10 M compound combined with 10^−8 M βNF) was “do not influence”. For the same compound, the “concentration at which AhR is not activated” value in data set [2] (yeast AhR activation assays) is “lower than 1 μM”. Moreover, the “concentrations at which AhR-signaling pathway is not activated” value in data set [2] (yeast strain MYA-3637) was “lower than 10^−6 M”. Further, the “concentrations decreasing MROD activity in HepG2 cells” value at P450 1A2 in HepG2 cells (24 h incubation, read at 10, 30, 60 min) is “higher than 10^−6 M”; on P450 1A2 in HepG2 cells (in-cell P450 1A2 inhibition assays), “higher than 1 μM”. Moreover, the “mode of inhibition of P450 1A2” value at P450 1A2 [1] is reported as “competitive inhibitor”.
With `O=c1cc(-c2ccccc2)oc2ccc3ccccc3c12` [βNF, β-naphthoflavone, reference compound], in data set [2] (10^−8 M, positive control, compared with blank control (1% DMSO)), the “activation of AhR-signaling pathway (Abs405/Abs600)” value was “great activation”. Moreover, the “effect on MROD activity in HepG2 cells” value on P450 1A2 in HepG2 cells (10^−5 M, 24 h incubation, read at 10, 30, 60 min) was “increased”.
For the compound `Cc1cc2c(ccc3c(=O)cc(-c4ccccc4)oc32)o1` [Compound 3, 8-Methyl-2-phenyl-4H-furo[2,3-h]chromen-4-one], the “effect on P450 1A1 activity” value on P450 1A1 is given as “does not influence”. At P450 1A2 [3], the “effect on P450 1A2 activity without NADPH preincubation” value was “significant inhibition”. The same compound came in with an inhibition at 6 min, 0.01 µM against CYP1A2 of 90%. Further, in data set [2] (yeast strain MYA-3637), the “concentrations showing considerable activation of AhR” value is “higher than 10^−7 M”. In addition, the “effect on P450 1B1 activity” value on P450 1B1 was “does not influence”. For the same compound, the “mode of inhibition of P450 1A2” value on P450 1A2 [1] is “time-dependent inhibitor”; at P450 1A2 [1] (listed as 7,8-furanoflavone), “time-dependently inhibits”; on P450 1A2 [1] (listed as 78FF), “time- and NADPH-dependent inhibition”. Further, the “KI (time-dependent inhibition of P450 1A2)” value on P450 1A2 [1] was 0.44 µM.

These data come from PMC4826332 (Journal of medicinal chemistry, 2015).
